Assays:
[1] = Cytotoxicity against human Raji cells assessed as cell viability at 10 molar ratio after 48 hrs; assay type: cell-based; conditions: read-out: Activity
Raji [2] = test: Inhibition of TPA-induced EBV-early antigen activation in human Raji cells at 10 molar ratio after 48 hrs relative to TPA by indirect immunofluorescence technique; values are per cent of control; conditions: human gammaherpesvirus 4
[3] = Cytotoxicity against human Raji cells assessed as cell viability at 500 molar ratio after 48 hrs; assay type: cell-based; conditions: read-out: Activity
Raji [4] = test: Inhibition of TPA-induced EBV-early antigen activation in human Raji cells at 100 molar ratio after 48 hrs relative to TPA by indirect immunofluorescence technique; values are per cent of control; conditions: human gammaherpesvirus 4
[5] = Cytotoxicity against human Raji cells assessed as cell viability at 100 molar ratio after 48 hrs; assay type: cell-based; conditions: read-out: Activity
Raji [6] = test: Inhibition of TPA-induced EBV-early antigen activation in human Raji cells at 1000 molar ratio after 48 hrs relative to TPA by indirect immunofluorescence technique; values are per cent of control; conditions: human gammaherpesvirus 4
[7] = Cytotoxicity against human Raji cells assessed as cell viability at 1000 molar ratio after 48 hrs; assay type: cell-based; conditions: read-out: Activity
Raji [8] = test: Inhibition of TPA-induced EBV-early antigen activation in human Raji cells at 500 molar ratio after 48 hrs relative to TPA by indirect immunofluorescence technique; values are per cent of control; conditions: human gammaherpesvirus 4

SMILES	viability at 48 h, 10 molar ratio [1] [%]	level, % of control (Raji [2]) [%]	viability at 48 h, 500 molar ratio [3] [%]	level, % of control (Raji [4]) [%]	viability at 48 h, 100 molar ratio [5] [%]	level, % of control (Raji [6]) [%]	viability at 48 h, 1000 molar ratio [7] [%]	level, % of control (Raji [8]) [%]
COc1ccc(CCO[C@@H]2O[C@H](CO)[C@@H](OC(=O)/C=C/c3ccc(O)c(OC)c3)[C@H](O[C@@H]3O[C@@H](C)[C@H](O)[C@@H](O)[C@H]3O)[C@H]2O)cc1O [MARTYNOSIDE A]	> 80	89.4	> 80	66.4	> 80	0	60	31.7
COc1ccc(CCO[C@@H]2O[C@H](CO)[C@@H](O)[C@H](O[C@@H]3O[C@@H](C)[C@H](O)[C@@H](O)[C@H]3O)[C@H]2O)cc1O [DARENDOSIDE A]	> 80	100	> 80	81.6	> 80	22.6	70	53.8
CC(CO)c1cc2c(c(O)c1O[C@@H]1O[C@H](CO)[C@@H](O)[C@H](O)[C@H]1O)[C@@]1(C)CCC[C@](C)(CO[C@@H]3O[C@H](CO)[C@@H](O)[C@H](O)[C@H]3O)[C@@H]1CC2 (stereo partly specified) [AJUGASIDE A]	> 80	91	> 80	68.3	> 80	0	60	24.9
C[C@]1(O)C[C@@H](O)[C@]2(O)C=CO[C@@H](O[C@H]3O[C@H](CO)[C@@H](O)[C@H](O)[C@H]3O)[C@@H]21	–	100	–	80.1	–	0	–	52.7
C[C@]1(O)C[C@@H](O)[C@]2(O)C=CO[C@@H](O[C@@H]3O[C@H](CO)[C@@H](O)[C@H](O)[C@H]3O)[C@@H]21 [HARPAGIDE]	> 80	–	> 80	–	> 80	–	60	–
CC(=O)O[C@@]1(C)C[C@@H](O)[C@]2(O)C=CO[C@@H](O[C@@H]3O[C@H](CO)[C@@H](O)[C@H](O)[C@H]3O)[C@@H]21	> 80	89.5	> 80	62.6	> 80	0	60	19.9
CC(=O)O[C@@]1(C)CC[C@]2(O)C=CO[C@@H](O[C@@H]3O[C@H](CO)[C@@H](O)[C@H](O)[C@H]3O)[C@@H]21 [REPTOSIDE]	> 80	90.3	> 80	71.3	> 80	0	60	22.4
COc1ccc(CCO[C@@H]2O[C@H](CO)[C@@H](OC(=O)/C=C/c3ccc(O)c(OC)c3)[C@H](O[C@@H]3O[C@@H](C)[C@H](O)[C@@H](O)[C@H]3O[C@@H]3O[C@H](CO)[C@H](O)[C@H](O)[C@H]3O)[C@H]2O)cc1O [GALACTOSYLMARTYNOSIDE]	> 80	98.5	> 80	76	> 80	0	60	31.8
